Assays:
rat osteocalcin promoter = assay: OCN (osteocalcin) promoter assay; type: cell-based; conditions: RG-15 (ROS 17/2.8) cells, 48 hr treatment, luciferase
Procedure: 3. The OCN (Osteocalcin) Promoter Assay
The OCN Promoter Assay is an indicator and marker for osteoporosis. Desired assay results are EC50 less than or equal to […]. Preferred assay results are less than […].
(3) Materials and Method for the OCN Promoter Assay:
The activation of osteocalcin by VDR ligands was evaluated in a rat osteoblast-like cell line RG-15 (ROS 17/2.8) stably expressing rat osteocalcin promoter fused with luciferase reporter gene. The stable cell lines were established as reported before (Activation of Osteocalcin Transcription involves interaction of protein kinase A- and Protein kinase C-dependent pathways. Boguslawski, G., Hale, L. V., Yu, X.-P., Miles, R. R., Onyia, J. E., Santerre R. F., Chandrasekhar, S. J. Biol. Chem. 275, 999-1006, 2000). Confluent RG-15 cells maintained in DMEM/F-12 medium (3:1) containing 5% FBS, 300 µg/ml G418 and at 37° C. under 5% CO2/95% air atmosphere were trypsinized (0.25% trypsin) and plated into white opaque 96-well cell culture plates (25000 cells/well). After 24 hr, cells (in DMEM/F-12 medium+2% FBS) were treated with various concentrations of compounds, dissolved in DMSO. The final DMSO concentration remained at 0.01% (v/v). After 48 hr treatment, the medium was removed, cells were lysed with 50 µl of lysis buffer (From Luciferase reporter assay system, Roche Diagnostics, Indianapolis, Ind.) and assayed for luciferase activity using the Luciferase Reporter Gene Assay kit from Boehringer Mannheim as per manufacturer's specifications.

VDR (pGal4-VDR-LBD) = target: T1, VDR (pGal4-VDR-LBD) (Homo sapiens, UniProt P11473); assay: VDR CTF (Caco-2 cell co-transfection assay); type: cell-based; conditions: Caco-2 cells, Gal4-responsive reporter pFRLuc; surrogate for calcemic activity
T1 construct: the receptor expression vector pGal4-VDR-LBD (10 ng); expressed in transfected cells; host or cells: Caco-2 cells
T1 sequence (P11473 127-423 limits assumed): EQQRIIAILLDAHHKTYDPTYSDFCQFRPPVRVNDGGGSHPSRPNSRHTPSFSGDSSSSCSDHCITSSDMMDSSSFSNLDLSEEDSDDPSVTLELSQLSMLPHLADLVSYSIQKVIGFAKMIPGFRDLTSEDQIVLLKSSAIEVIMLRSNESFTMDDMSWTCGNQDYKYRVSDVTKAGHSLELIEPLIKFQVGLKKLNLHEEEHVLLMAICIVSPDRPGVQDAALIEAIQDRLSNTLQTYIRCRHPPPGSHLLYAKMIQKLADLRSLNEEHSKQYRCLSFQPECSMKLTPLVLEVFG
Procedure: 2. The Caco-2 Cell Co-Transfection Assay:
The Caco-2 cell assay is an indicator for the undesirable condition of hypercalcemia. This co-transfection assay is a surrogate assay for in vivo calcemic activity of VDR ligands. […] Preferred assay results are greater than 1000 nM.
(2) Materials and Method for the Caco-2 Cell Assay:
Caco-2 cells, grown in phenol red free, DMEM (Invitrogen, Carlsbad, Calif.) containing 10% charcoal-stripped FCS (Hyclone, Logan, Utah), were transfected with Fugene 6 reagent (Roche Diagnostics, Indianapolis, Ind.). Cells (5000/well) were plated 18 h before transfection in a 96 well plate. The Cells were transfected with Gal4-responsive reporter pFRLuc (150 ng, Stratagene, La Jolla Calif.) and the receptor expression vector pGal4-VDR-LBD (10 ng), along with Fugene 6 reagent (0.2 μl/well). The DNA-Fugene complex was formed by incubating the mixture for 30 min at room temperature. The cells were transfected in triplicate for 5 h, and treated with various concentrations of VDR ligands (form 0.01 nM to 10,000 nM concentration range) 18 h post-transfection. The luciferase activity was quantified using Steady-Glo reagent kit (Promega, Madison, Wis.) as per manufacturer's specifications.

Row | Structure (SMILES) | EC50 (rat osteocalcin promoter) [nM] | EC50 (rat osteocalcin promoter; Rattus norvegicus, 48 h) [nM] | EC50 (VDR (pGal4-VDR-LBD)) [nM]
1 | CCC(CC)(c1ccc(OCC(O)(C(C)C)C(C)C)c(C)c1)c1ccc(C(=O)NCC(=O)O)c(C)c1 [Ex. 4, (4-{1-Ethyl-1-[4-(2-hydroxy-2-isopropyl-3-methyl-butoxy)-3-methyl-phenyl]-propyl}-2-methyl-benzoylamino)-acetic acid] | 27.7 | 21 | 974
2 | CCC(O)(CC)COc1ccc(C(CC)(CC)c2ccc(C(=O)NCC(=O)O)c(C)c2)cc1C [Ex. 3, (4-{1-ethyl-1-[4-(2-ethyl-2-hydroxy-butoxy)-3-methyl-phenyl]-propyl}-2-methyl-benzoylamino)-acetic acid] | 19.7 | 16.8 | 819

Source: patent US7595345B2, “Vitamin D receptor modulators” (Eli Lilly and Company, priority 2003, dated 2009)
